We go through 25 compounds from US8163732B2, “Tricyclic heteroaryl compounds useful as inhibitors of Janus kinase” (Vertex Pharmaceuticals Incorporated, priority 2005, dated 2012).

The structures appear in SMILES notation.

One may read the Ki as a dissociation constant, usually derived from enzyme kinetics or from competition with a known ligand. Low values mean higher affinity, high ones lower affinity.

One test addresses T1, JAK-3 (Homo sapiens, UniProt P52333).
T1 sequence (P52333 1-1124): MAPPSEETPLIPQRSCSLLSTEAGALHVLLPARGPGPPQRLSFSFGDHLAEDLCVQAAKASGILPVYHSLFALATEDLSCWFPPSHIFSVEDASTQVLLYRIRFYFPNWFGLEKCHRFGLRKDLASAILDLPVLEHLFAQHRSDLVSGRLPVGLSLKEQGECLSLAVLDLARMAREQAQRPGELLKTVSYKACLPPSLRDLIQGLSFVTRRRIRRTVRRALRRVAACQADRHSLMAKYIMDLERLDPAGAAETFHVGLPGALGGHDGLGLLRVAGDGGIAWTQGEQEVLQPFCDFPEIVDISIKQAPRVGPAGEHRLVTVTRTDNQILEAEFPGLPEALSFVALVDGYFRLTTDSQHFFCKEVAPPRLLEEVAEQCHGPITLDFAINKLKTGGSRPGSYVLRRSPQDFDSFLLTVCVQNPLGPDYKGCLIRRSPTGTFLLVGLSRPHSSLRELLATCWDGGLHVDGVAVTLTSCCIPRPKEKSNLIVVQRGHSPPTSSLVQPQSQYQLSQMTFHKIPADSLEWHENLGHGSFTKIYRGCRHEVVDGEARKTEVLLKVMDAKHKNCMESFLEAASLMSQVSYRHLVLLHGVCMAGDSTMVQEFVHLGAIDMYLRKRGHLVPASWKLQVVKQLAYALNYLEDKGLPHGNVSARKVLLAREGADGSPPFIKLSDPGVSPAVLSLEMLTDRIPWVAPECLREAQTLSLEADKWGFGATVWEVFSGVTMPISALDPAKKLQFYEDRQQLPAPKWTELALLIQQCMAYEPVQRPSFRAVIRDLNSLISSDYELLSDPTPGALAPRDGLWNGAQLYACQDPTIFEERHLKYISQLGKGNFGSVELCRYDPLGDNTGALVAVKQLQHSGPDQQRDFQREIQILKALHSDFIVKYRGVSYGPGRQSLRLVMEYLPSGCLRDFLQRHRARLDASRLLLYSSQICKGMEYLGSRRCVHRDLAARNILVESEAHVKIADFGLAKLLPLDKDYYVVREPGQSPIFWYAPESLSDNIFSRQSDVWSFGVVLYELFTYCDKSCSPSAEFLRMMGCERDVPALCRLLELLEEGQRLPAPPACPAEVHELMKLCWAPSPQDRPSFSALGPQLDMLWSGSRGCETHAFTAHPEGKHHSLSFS
Nature of the test: JAK-3 inhibition assay. Type of test: biochemical. The method, then: Compounds were screened for their ability to inhibit JAK using the assay shown below. Reactions were carried out in a kinase buffer containing 100 mM HEPES (pH 7.4), 1 mM DTT, 10 mM MgCl2, 25 mM NaCl, and 0.01% BSA.
Substrate concentrations in the assay were 5 μM ATP (200 μCi/μmole ATP) and 1 μM poly(Glu)4Tyr. Reactions were carried out at 25° C. and 1 nM JAK-3.
To each well of a 96 well polycarbonate plate was added 1.5 μL of a candidate JAK-3 inhibitor along with 50 μL of kinase buffer containing 2 μM poly(Glu)4Tyr and 10 μM ATP. This was then mixed and 50 μL of kinase buffer containing 2 nM JAK-3 enzyme was added to start the reaction. After 20 minutes at room temperature (25° C.), the reaction was stopped with 50 μL of 20% trichloroacetic acid (TCA) that also contained 0.4 mM ATP. The entire contents of each well were then transferred to a 96 well glass fiber filter plate using a TomTek Cell Harvester. After washing, 60 μL of scintillation fluid was added and ^33P incorporation detected on a Perkin Elmer TopCount. After removing the mean background values for all of the data points, the data were fit using Prism software to obtain a Ki value (app).

Another test has as its target JAK-2 (Homo sapiens, UniProt O60674). Nature of the test: JAK-2 inhibition assay. Type of test: biochemical.

Chain of JAK-2 (O60674 whole entry): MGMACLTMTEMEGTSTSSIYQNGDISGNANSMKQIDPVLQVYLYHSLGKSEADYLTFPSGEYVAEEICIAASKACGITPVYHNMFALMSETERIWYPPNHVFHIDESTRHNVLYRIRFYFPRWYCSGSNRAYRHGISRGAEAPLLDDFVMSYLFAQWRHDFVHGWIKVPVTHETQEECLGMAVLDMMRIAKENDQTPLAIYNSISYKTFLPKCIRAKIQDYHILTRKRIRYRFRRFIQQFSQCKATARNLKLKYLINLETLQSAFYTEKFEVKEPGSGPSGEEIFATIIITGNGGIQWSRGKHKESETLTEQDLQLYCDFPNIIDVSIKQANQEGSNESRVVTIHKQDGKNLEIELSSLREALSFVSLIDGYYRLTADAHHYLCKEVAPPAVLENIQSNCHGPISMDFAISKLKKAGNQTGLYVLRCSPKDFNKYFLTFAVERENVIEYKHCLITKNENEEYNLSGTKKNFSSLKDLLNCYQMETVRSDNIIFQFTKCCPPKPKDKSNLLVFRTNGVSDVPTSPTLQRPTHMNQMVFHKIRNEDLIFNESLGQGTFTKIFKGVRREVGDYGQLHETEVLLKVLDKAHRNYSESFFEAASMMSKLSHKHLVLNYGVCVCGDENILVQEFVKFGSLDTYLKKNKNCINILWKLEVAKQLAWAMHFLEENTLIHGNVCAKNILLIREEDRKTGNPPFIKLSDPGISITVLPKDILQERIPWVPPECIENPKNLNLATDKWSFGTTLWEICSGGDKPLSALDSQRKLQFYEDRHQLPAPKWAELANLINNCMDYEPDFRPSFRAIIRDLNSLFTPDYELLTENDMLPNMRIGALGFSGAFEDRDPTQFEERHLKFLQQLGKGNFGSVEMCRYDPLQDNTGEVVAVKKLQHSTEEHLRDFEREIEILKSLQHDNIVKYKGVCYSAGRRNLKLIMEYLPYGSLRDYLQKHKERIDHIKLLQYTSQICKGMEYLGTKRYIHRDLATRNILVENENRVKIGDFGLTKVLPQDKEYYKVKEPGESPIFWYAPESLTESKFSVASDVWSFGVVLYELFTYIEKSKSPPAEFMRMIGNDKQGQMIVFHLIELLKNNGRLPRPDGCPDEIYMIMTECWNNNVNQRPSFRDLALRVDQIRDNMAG

Consider `Fc1cccc(F)c1C1Nc2ccccc2-c2c(Cl)cnc3[nH]cc1c23` (centres unmarked) [Compound 52], for which the Ki on JAK-3 and on JAK-2 was 250 to 2500 nM each time.

For `COc1ccc(C2Nc3ccccc3-c3ccnc4[nH]cc2c34)c(Cl)c1O` (centres unmarked) [Compound 70], the Ki was 250 to 2500 nM at JAK-3 and < 250 nM at JAK-2.

Regarding `Fc1cccc(C2Nc3ccccc3-c3ccnc4[nH]cc2c34)c1` (centres unmarked) [Compound 11], the Ki is 250 to 2500 nM at JAK-3 and < 250 nM on JAK-2.

In the case of `Oc1ccc(C2Nc3ccccc3-c3ncnc4[nH]cc2c34)c(Cl)c1` (centres unmarked) [Compound 55], the Ki on JAK-3 was ≤ 250 nM; on JAK-2, < 250 nM.

`Oc1ncc(C2Nc3ccccc3-c3ccnc4[nH]cc2c34)c(O)n1` (centres unmarked) [Compound 80]: the Ki at JAK-3 and on JAK-2 was > 2500 nM throughout.

As for `N#CCC1Nc2ccccc2-c2ccnc3[nH]cc1c23` (centres unmarked) [Compound 155], the Ki at JAK-3 is ≤ 250 nM; at JAK-2, < 250 nM.

For `Cc1ccc(C2C(=O)Nc3ccccc3-c3ncnc4[nH]cc2c34)cc1` (centres unmarked) [Compound 161], the Ki on JAK-3 was 250 to 2500 nM; on JAK-2, < 250 nM.

With `Cc1ccc(COc2ccccc2C2Nc3ccccc3-c3ccnc4[nH]cc2c34)cc1` (centres unmarked) [Compound 132], the Ki on JAK-3 and on JAK-2 was > 2500 nM throughout.

Turning to `Cc1cc(O)ccc1C1Nc2ccccc2-c2ccnc3[nH]cc1c23` (centres unmarked) [Compound 133], the Ki was ≤ 250 nM on JAK-3 and < 250 nM at JAK-2.

`FC(F)(F)c1ccc(C2Nc3ccccc3-c3ccnc4[nH]cc2c34)cc1` (centres unmarked) [Compound 136]: the Ki at JAK-3 and on JAK-2 was > 2500 nM each time.

In the case of `COc1ccc(C2NC(=O)c3ccccc3-c3ccnc4[nH]cc2c34)cc1C` (centres unmarked) [Compound 129], the Ki on JAK-3 and on JAK-2 was > 2500 nM throughout.

For `Fc1ccc(C2Nc3ccccc3-c3ccnc4[nH]cc2c34)cc1` (centres unmarked) [Compound 12], the Ki on JAK-3 and on JAK-2 was 250 to 2500 nM throughout.

As to `COC(=O)Nc1ccc(C2Nc3ccccc3-c3ccnc4[nH]cc2c34)cc1` (centres unmarked) [Compound 99], the Ki was 250 to 2500 nM at JAK-3 and > 2500 nM on JAK-2.

For `CCCOc1ccc(C2Nc3ccccc3-c3ccnc4[nH]cc2c34)cc1` (centres unmarked) [Compound 146], the Ki on JAK-3 was ≤ 250 nM; at JAK-2, < 250 nM.

`c1ccc2c(c1)NC(c1ccc3nsnc3c1)c1c[nH]c3nccc-2c13` (centres unmarked) [Compound 144]: the Ki is > 2500 nM at JAK-3 and 250 to 2500 nM on JAK-2.

In the case of `c1ccc2c(c1)NC(c1ccc3c(c1)OCO3)c1c[nH]c3nccc-2c13` (centres unmarked) [Compound 22], the Ki at JAK-3 is 250 to 2500 nM; on JAK-2 it was < 250 nM.

On to `Fc1ccc(F)c(C2Nc3ccccc3-c3c(Cl)cnc4[nH]cc2c34)c1F` (centres unmarked) [Compound 54], for which the results for the Ki on JAK-3 and at JAK-2 were 250 to 2500 nM and < 250 nM, respectively.

For the compound `CCOC(=O)C1(c2ccc(OC)c(F)c2)Nc2ccccc2-c2ccnc3[nH]cc1c23` (centres unmarked) [Compound 130], the Ki on JAK-3 was 250 to 2500 nM; at JAK-2, < 250 nM.

Take `c1ccc(Oc2ccc(C3Nc4ccccc4-c4ccnc5[nH]cc3c45)cc2)cc1` (centres unmarked) [Compound 147]: the Ki at JAK-3 and at JAK-2 was > 2500 nM each time.

On to `O=C1Nc2ccccc2-c2ccnc3[nH]cc(c23)C1c1ccc(O)c(F)c1` (centres unmarked) [Compound 150], for which the values for the inhibition constant Ki at JAK-3 and at JAK-2 were ≤ 250 nM and < 250 nM, respectively.

As for `COC(=O)C1(c2ccc(N)cc2)Nc2ccccc2-c2ccnc3[nH]cc1c23` (centres unmarked) [Compound 102], the Ki at JAK-3 and at JAK-2 was > 2500 nM in each case.

With `O=[N+]([O-])c1cc(O)ccc1C1Nc2ccccc2-c2ccnc3[nH]cc1c23` (centres unmarked) [Compound 71], the Ki on JAK-3 was ≤ 250 nM; at JAK-2 it was < 250 nM.

For `Oc1cccc(C2Nc3ccccc3-c3ccnc4[nH]cc2c34)c1O` (centres unmarked) [Compound 69], the results for the Ki at JAK-3 and on JAK-2 were ≤ 250 nM and < 250 nM, respectively.

`Oc1ccc(C2Nc3ccccc3-c3ccnc4[nH]cc2c34)cc1Cl` (centres unmarked) [Compound 74]: the inhibition constant Ki on JAK-3 is ≤ 250 nM; on JAK-2 it was < 250 nM.

Turning to `Oc1ccc([C@H]2Nc3ccccc3-c3ccnc4[nH]cc2c34)c(Cl)c1` [Compound 62], the values for the Ki at JAK-3 and at JAK-2 were ≤ 250 nM and < 250 nM, respectively.
